Experiment: Human HepG2 cell viability assay in 384 well format
Type: toxicity, cell-based
Set-up: dose 125 nL, time 70.5 hour; concentration not given beside the values
Conditions: HepG2 cells, read-out: Inhibition

SMILES | cytotoxicity at 70.5 h [%]
CC(c1nc(C2CC2)no1)N1CCN(CCn2ccccc2=O)CC1 (stereo not given) | -4.93
CCS(=O)(=O)NCCN1CCc2ccc(F)cc2C1C (stereo not given) | -4.91
Cc1nn(C)c(C)c1C1CCCN1c1ncnc2c1CCC2 (stereo not given) | 1.18
CN(CC(=O)NCCc1cc2ccccc2o1)S(C)(=O)=O | 13.9
COCCn1c(C(=O)NCc2n[nH]c(C)n2)cc2ccccc21 | -0.294
OC1(CNc2ccc(Br)cn2)CCC1 | 16.3
CS(=O)(=O)CCn1ccc(NCc2ccc(C#N)cc2)n1 | -0.713
CN(C)c1ccc(C(=O)N2CCCCC2CC(N)=O)c(F)c1 (stereo not given) | -1.41
OC1(CNc2ccc(Br)cn2)CCSCC1 | 15.9
Cc1nc(CN(C)C(=O)Nc2cccc(COC(C)C)c2C)no1 | -4.14
Cc1csc(C(C)(C)NCCNS(C)(=O)=O)n1 | 18.5
Cc1csc(C(C)(C)NCCCS(C)(=O)=O)n1 | -2
CC1c2cc(F)ccc2CCN1CCS(=O)(=O)C(C)C (stereo not given) | -3.51
CNS(=O)(=O)CC1CCCN1c1ccccn1 (stereo not given) | -4.24
CC(Nc1ccn(CCS(C)(=O)=O)n1)c1ccc(C#N)cc1 (stereo not given) | -1.96
CN(C)C(=O)CCCn1ccc(NCc2ccc(C#N)cc2)n1 | -2.31
CC1c2cc(F)ccc2CCN1CCCS(=O)(=O)C(C)C (stereo not given) | -2.78
CNC(=O)NCC(=O)N(C)C(c1ccc(Cl)cc1)c1cccnc1 (stereo not given) | 21.3
O=C1NCCCCC1Sc1ccccc1F (stereo not given) | -11.2
CN(C)c1ncccc1CNCc1cccc(O)c1 | -12.2
Cc1ccc(CNC(=O)CN(CCC(N)=O)c2ccc(F)cc2)cc1 | -3.51
COc1ccc(CCC2CCCCN2)cc1OC (stereo not given) | 19.8
N#CCCCS(=O)(=O)NC1(c2cccc(Br)c2)CC1 | -8.99
CCN(CC)C(=O)NC(C)c1ccc(Oc2cccnc2)c(F)c1 (stereo not given) | 16

SMILES | cytotoxicity at 70.5 h [%]
Cc1ccc(C(F)(F)F)cc1NC(=O)C1CCCN1 (stereo not given) | -8.7
O=C(NCC1(O)CCC1)c1c(O)cc(Cl)cc1Cl | -1.39
O=C(NCC1(O)CCC1)c1c(O)cc(F)cc1F | 13.9
CSCC(=O)N1CCOC(c2nc(C(C)C)n[nH]2)C1 (stereo not given) | -7.67
CC1(C)CN(C(=O)c2cc(F)cc3[nH]cnc23)CCS1 | -11
Cc1noc(NCc2cn(C)nc2-c2ccncc2)n1 | -11.4
CCN1CCCCC1C(=O)N1CCN(C(=O)OC)CC1 (stereo not given) | -5.22
CCN1CCCCC1C(=O)N1CCC(OCCOC)CC1 (stereo not given) | 1.39
CC(=O)Nc1cccc(CN2CCN(C3=NCC(C)(C)S3)CC2)c1 | -10.7
COC(=O)N1CCCC(C(=O)NCCc2c[nH]c3cc(C)ccc23)C1 (stereo not given) | -10.8
Cc1ccc(CN(C)C(=O)CN2CCc3ccccc3C2)o1 | -6.98
OCc1cccc(CNCc2cccc3c2OCCO3)c1 | -1.29
Cc1cc(C(=O)N(CC(=O)O)CC(C)C)ccc1F | -7.96
O=C1CCC(=O)N1CCn1nnc(-c2ccc(Br)cc2)n1 | -2.01
COc1ccc(C)cc1CN(CC(N)=O)C(C)C | -3.29
CCN(Cc1ccccn1)C1CCN(c2ccccc2)C1=O (stereo not given) | -5.06
Cc1nn(C)c(C)c1C1CCCN1C(=O)c1ccc(C(N)=O)s1 (stereo not given) | 17.5
Cc1nccc(CNC(=O)NC(c2ncc(C)s2)C2CC2)n1 (stereo not given) | 17.4
O=C(NCCOc1cccc(Cl)c1Cl)N1CCC2(CC1)OCCO2 | -4.01
Cc1nc(C(C)C)sc1C(C)N(C)C(=O)c1ccc(=O)n(C)n1 (stereo not given) | -1.77
CCCOc1cc(CNC(=O)Nc2cccc(C(C)=O)c2)ccn1 | -0.91
CCNC(=O)c1ccc(NC2CCOC3(CCCCC3)C2)nn1 (stereo not given) | 16.8
CCCOc1cc(CNC(=O)Nc2ccc(C)cc2)ccn1 | -2.77
CNS(=O)(=O)CC(=O)NCc1cc2c(s1)CCC(C)(C)C2 | -1.59

SMILES | cytotoxicity at 70.5 h [%]
CNS(=O)(=O)CC(=O)NCc1cc2c(s1)CCCCC2 | -1.17
NC(=O)COc1cccc(Cn2cc(Br)cn2)c1 | -1.2
NC(=O)CN1CCc2c(Br)ccc(F)c2C1 | 3.38
CNC(=O)NC(=O)CN1CCc2c(Br)ccc(F)c2C1 | -0.281
O=C(NCCN1CCOCC1)c1cc(-c2ccccc2Cl)[nH]n1 | 1.45
Cc1ccc(-c2cc(C(=O)NCCN3CCOCC3)n[nH]2)s1 | -3.46
NC(=O)c1cnc(NC2CCN(C(=O)C3CC3)CC2)c(Cl)c1 | -0.537
Cc1cccc(C(=O)NCC2CCS(=O)(=O)C2)n1 (stereo not given) | -1.5
CCc1ncncc1C(=O)NCCNS(=O)(=O)c1ccc(C)cc1 | -1.77
O=C(NCCN1CCOCC1)NCc1ccccc1-n1cccn1 | -0.678
CC(C)(C)n1ncc2c(=O)[nH]c(N3CCN(CC(F)F)CC3)nc21 | -4.17
Cc1cnc2c(S(=O)(=O)NC(=O)C(C)OCC3CC3)cccc2c1 (stereo not given) | -0.0884
Cc1nnc(NCC(c2ccco2)N2CCCCC2)c(C#N)c1C (stereo not given) | -0.616
Cc1csc(-c2cccc(NC(=O)NCC(C)(C)C(N)=O)c2)n1 | -0.0997
Cc1ccc(NS(=O)(=O)c2ccc(C#N)cc2)c(CN(C)C)c1 | -3.45
Clc1ccccc1CNC(Cn1cncn1)c1ccccc1 (stereo not given) | 14.7
CCOC(C)C(=O)NS(=O)(=O)c1cccc2cc(C)cnc12 (stereo not given) | 1.55
CC(C)(C)n1ncc2c(=O)[nH]c(N3CC(O)C3)nc21 | 0.684
Cc1cn2c(CN(C)C(=O)c3ncoc3C)c(C)nc2s1 | -0.848
Cc1cn2c(CN(C)C(=O)c3cccnc3O)c(C)nc2s1 | -4.29
COC(C)C(=O)NS(=O)(=O)c1cccc2cc(C)cnc12 (stereo not given) | -2.88
Cc1cc(C(=O)N(C)C(C)CC(C)C)on1 (stereo not given) | -1.57
Cc1occc1C(=O)N1CCOC2(CCCC2)C1 | -3.65
FC(F)Oc1ccc(CN2CCOC3(CCOCC3)C2)cc1Cl | 1.46

SMILES | cytotoxicity at 70.5 h [%]
Fc1cc(CN2CCOC3(CCOCC3)C2)ccc1Cl | -1.5
CCCOC1CCCN(C(=O)c2ccnc(N3CCN(C)CC3)c2)C1 (stereo not given) | 23
CC(C)(C)NC(=O)COc1ccc(Oc2ccccn2)cc1 | -6.32
COc1ccc(Oc2ccc(CNC(=O)C3CCS(=O)(=O)C3)cn2)cc1 (stereo not given) | -6.05
COc1ccc(OC)c(CCC(=O)Nc2cc(C)n[nH]2)c1 | -13.4
O=C(c1cnc(NCC2CCCO2)c(Cl)c1)N1CCCCC1 (stereo not given) | 30.2
Cc1cc(C)c(CNC(=O)N2CCNC(=O)C2)c(=O)[nH]1 | -4.49
O=C(CN1CCc2cncnc2C1)N1CCc2sccc2C1 | -11
CN(C)C1Cc2ccccc2N(S(=O)(=O)c2cccc(C#N)c2)C1 (stereo not given) | -4.2
CN(C)C1Cc2ccccc2N(S(=O)(=O)c2ccc(C#N)cc2)C1 (stereo not given) | -7.27
COc1ccc(C)cc1CC(=O)Nc1cc(C)n[nH]1 | -8.99
COc1cc(OC)cc(N2CCC(NCc3cccs3)C2=O)c1 (stereo not given) | -0.0615
CN(CCCNC(=O)NCc1ccncc1)CC(F)(F)F | -8.47
CCc1nsc(N2CCOC3(CCCC3)C2)n1 | -3.55
CC(C)c1cnc(CN2CCCC(c3ccn[nH]3)C2)o1 (stereo not given) | -7.68
CCc1ocnc1C(=O)N1CCOCC1CC(=O)c1ccccc1 (stereo not given) | -7.1
Cc1cnn(CCNCc2cc(C)no2)c1 | 2.88
N#Cc1cccc(CN2CCCC2c2ccc[nH]2)c1 (stereo not given) | 15.2
CCc1ccc(C2CCCN2C(=O)Cc2ccc(NC(C)=O)cc2)o1 (stereo not given) | 10.6
CCN(CC)C(=O)CCCNC(=O)c1csc(NC2CC2)n1 | -9.34
O=C1CSCN1CC(=O)N1CCCC1c1nc2ccccc2s1 (stereo not given) | 2.26
CC(C)C(C)N(C)Cc1nnc(-c2ccco2)o1 (stereo not given) | 17.4
CCOC(=O)NCCC(=O)NCc1ccnc(Oc2ccc(F)cc2)c1 | -1.77
CC(Cc1ccccc1F)NC(=O)CCc1nc(-c2nnc[nH]2)no1 (stereo not given) | -4.06

SMILES | cytotoxicity at 70.5 h [%]
CNC(=O)c1cccc(NC(=O)c2ccnc(N(C)C)c2)c1C | -0.673
Cc1cc(NC(=O)CNc2ccc(Br)cc2F)on1 | 2.93
Cn1c(C2CCCN2C(=O)CN2CCCC2=O)nc2ccccc21 (stereo not given) | -3.63
Cc1nc2cc(=O)[nH]n2c(C)c1CC(=O)Nc1cnn(C(C)(C)C)c1 | -3.02
Cc1noc(C)c1C(=O)NCc1cc[nH]n1 | 11.4
CCC(CC)C(=O)NCC1(NC(C)c2ccccc2)CCOCC1 (stereo not given) | 16.6
CC1CCCN(Cc2ccc(CNC(=O)NCc3ccncc3)cc2)C1 (stereo not given) | -5.32
Cc1ncc2c(n1)CN(Cc1cn3ccsc3n1)CC2 | -0.474
COc1ccc(C(CC(=O)O)NC(=O)c2cc(C)on2)cc1 (stereo not given) | -1.84
CCC(NC(=O)NCC(=O)Nc1ccc(F)cc1)c1ccncc1 (stereo not given) | 2.31
CCNC(=O)Cc1ccc(NC(=O)NC(CC)c2ccncc2)cc1 (stereo not given) | -2.39
CCOC(=O)c1nnc2ccccc2c1N1CCN(C(C)C)CC1 | -4.21
CCOCC(=O)NCC1(NC(C)c2ccccc2)CCOCC1 (stereo not given) | -8.52
COc1cccc(S(=O)(=O)CCN2CCCC2c2ccc[nH]2)c1 (stereo not given) | -16.8
CC(=O)N1CCN(CCNS(=O)(=O)c2ccc(F)c(F)c2)CC1 | 2.27
O=C(NCCCNC(=O)c1cccc(O)c1)Nc1ccc(Cl)cc1 | -0.328
CCNC(=O)NC(=O)CNC1(c2noc(C)n2)CCCC1 | 16.6
NC(=O)C(CNC(=O)Cc1ccsc1)Cc1ccc(F)cc1 (stereo not given) | -3.39
CC(c1nc(C2CC2)no1)N1CCN(CC(=O)N2CCOCC2)CC1 (stereo not given) | 0.558
CCn1cnnc1C1CCN(C(=O)c2c(C)oc(C)c2C)CC1 | 0.3
CCC(C)NC(=O)NCCC(=O)N1CCN(c2ccccn2)CC1 (stereo not given) | -0.377
CCn1cnnc1C1CCN(C(=O)c2ccc3ccccc3n2)CC1 | -3.84
CCn1cnnc1C1CCN(C(=O)c2cccc(-n3cccc3)c2)CC1 | -2.68
CC(C)c1nc(C(=O)N2CCOCC2CC(=O)c2ccco2)cs1 (stereo not given) | -2.9
